Test results published in PubChem BioAssay (NCI).
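These data come from cells grown in 96-well plates and exposed to compound for 48 hours at five concentrations. Here, GI50 denotes the concentration required for 50% inhibition of growth. TGI: concentration producing complete growth inhibition.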

What follows are compounds tested on DU-145 prostate (assay: DTP human tumour cell line panel, 48 h).

Row | SMILES | TGI | GI50
1 | CN1c2ccccc2C(=O)NC12CCN(CC1COc3ccccc3O1)CC2 (stereo unspecified) | > 100 µM | –
2 | Cc1cn(C2CC(OC(c3ccccc3)(c3ccccc3)c3ccccc3)C(COC(c3ccccc3)(c3ccccc3)c3ccccc3)O2)c(=O)[nH]c1=O (stereo unspecified) | > 100 µM | –
3 | CCOC(=O)c1ccc(C(=O)/C(C(=O)OC(C)(C)C)=C2\CCCN2C)n1C | > 100 µM | –
4 | O=C1c2c(c3c4ccc(Br)cc4oc3c3[nH]c4ccccc4c23)C(=O)N1O | > 100 µM | 3.23 µM
5 | O=CN(O)CC(=O)O | > 100 µM | –
6 | C(=N/Nc1ccc(-c2nc3ccccc3[nH]2)cc1)/c1c(-c2ccccc2)[nH]c2ccccc12 | > 100 µM | –
7 | CCOC(=O)c1c(NC(=S)Nc2ccc(C)cc2)sc2c1CCN(C)C2 | > 100 µM | –
8 | c1ccc(-c2ccc(N=NN3CCCC3)cc2)cc1 | > 100 µM | –
9 | NNC(=O)c1cccc2c1Oc1ccccc1S2 | > 100 µM | –
10 | NC(=S)N=Nc1c(O)cc(Nc2ccc(Cl)cc2Cl)c2ccccc12 | > 100 µM | –
11 | CNc1ccc2c(c1)Cc1ccccc1-2 | > 100 µM | –
12 | CCOC(=O)c1csc(NC(=O)CCCC#N)n1 | > 100 µM | –
13 | O=c1cc(-c2ccccc2F)[nH]c2cc3c(cc12)OCO3 | 0.48 µM | –
14 | COC(=O)c1sc2ncc3c(c2c1N)CC(C)CC3 (stereo unspecified) | > 100 µM | –
15 | CCc1cc(=O)n(/C(C)=C/c2ccccc2)n1C | > 100 µM | –
16 | CC1=CCC[C@H]2[C@](C)(CC3=CC(=O)C4SCCSC4C3=O)[C@@H](C)CC[C@]12C (stereo partly specified) | 66.9 µM | –
17 | COC(=O)C1=C(C(=O)OC)C2(C)CCC(=O)C1O2 (stereo unspecified) | > 10 µM | –
18 | N/C(CSCCSC/C(N)=N/O)=N\O | > 100 µM | –

Each compound was assayed on OVCAR-8 ovarian (assay: DTP human tumour cell line panel, 48 h).

Row | SMILES | TGI | GI50
19 | CC(O)(C(=O)N(O)c1ccc(Cl)cc1)c1ccc(Cl)cc1 (stereo unspecified) | > 100 µM | –
20 | CCOP(=O)(OCC)c1cc(-c2ccccc2)ccc1N | > 100 µM | –
21 | CC1(C)[C@@H]2C[C@H]1c1cnc(-c3ccccn3)cc1[C@H]2C(O)[C@@H]1c2cc(-c3ccccn3)ncc2[C@H]2C[C@@H]1C2(C)C (stereo partly specified) | 3.1 µM | –
22 | CC1(C)OC(CCO)CN1C(=O)OCc1ccccc1 (stereo unspecified) | > 100 µM | –
23 | COc1cc2c(cc1OCCCOc1cc3c(cc1OC)C(=O)N1CCC[C@H]1CN3)N=C[C@@H]1CCCN1C2=O | 1.28 µM | –
24 | CCOC(=O)C1=C(C)NC(=O)N([N+](=O)[O-])C1c1ccccc1C(F)(F)F (stereo unspecified) | > 100 µM | –
25 | O=c1c(Cc2ccccc2)c(-c2ccccc2)[nH]n1C1=NCCN1 | > 100 µM | –
26 | Brc1ccc2c(c1)-c1nc3c(cc1CC2)CCc1ccc(Br)cc1-3 | > 100 µM | –
27 | OC(c1ccco1)C(F)(F)c1nc2ccccc2o1 (stereo unspecified) | > 100 µM | –
28 | CN1c2ccccc2C(=O)NC12CCN(CC1COc3ccccc3O1)CC2 (stereo unspecified) | > 100 µM | –
29 | Cc1cn(C2CC(OC(c3ccccc3)(c3ccccc3)c3ccccc3)C(COC(c3ccccc3)(c3ccccc3)c3ccccc3)O2)c(=O)[nH]c1=O (stereo unspecified) | > 100 µM | –
30 | CCOC(=O)C(NC(=O)c1ccc(N=NN(C)C)cc1)C(C)C (stereo unspecified) | > 100 µM | –
31 | COc1cc(CCCOC2OC(COC3OCC(O)C(O)C3O)C(O)C(O)C2O)cc2cc(-c3ccc4c(c3)OCO4)oc12 (stereo unspecified) | 109 µM | –
32 | CCOC(=O)c1ccc(C(=O)/C(C(=O)OC(C)(C)C)=C2\CCCN2C)n1C | > 100 µM | –
33 | O=C1c2c(c3c4ccc(Br)cc4oc3c3[nH]c4ccccc4c23)C(=O)N1O | > 100 µM | 1.45 µM
34 | O=CN(O)CC(=O)O | > 100 µM | –

Row | SMILES | TGI | GI50
35 | C(=N/Nc1ccc(-c2nc3ccccc3[nH]2)cc1)/c1c(-c2ccccc2)[nH]c2ccccc12 | > 100 µM | –
36 | CCOC(=O)c1c(NC(=S)Nc2ccc(C)cc2)sc2c1CCN(C)C2 | > 100 µM | –
37 | c1ccc([P+](Cc2csnn2)(c2ccccc2)c2ccccc2)cc1 | > 100 µM | –
38 | c1ccc(-c2ccc(N=NN3CCCC3)cc2)cc1 | > 100 µM | –
39 | NNC(=O)c1cccc2c1Oc1ccccc1S2 | > 100 µM | –
40 | NC(=S)N=Nc1c(O)cc(Nc2ccc(Cl)cc2Cl)c2ccccc12 | 93.9 µM | –
41 | CCC1(CC)C(=O)NC(=S)N=C1N | > 100 µM | –
42 | CCCC[C@@H]1CCN2C[C@@H](O)[C@@H](O)[C@H]2[C@@H]1O | > 100 µM | –
43 | O=C(NN1C(=O)CSC1c1ccc(Cl)c(Cl)c1)c1ccncc1 (stereo unspecified) | > 100 µM | –
44 | CNc1ccc2c(c1)Cc1ccccc1-2 | 59.6 µM | –
45 | CCOC(=O)c1csc(NC(=O)CCCC#N)n1 | > 100 µM | –
46 | CCOC(=O)C(C)NC(=O)N(C)C12CC3CC(CC(C3)C1)C2 (stereo unspecified) | > 500 µM | –
47 | O=c1c2cc3c(=O)n(CCc4ccccc4CO)c(=O)c3cc2c(=O)n1CCc1ccccc1CO | > 100 µM | –
48 | CCc1cc(=O)n(/C(C)=C/c2ccccc2)n1C | > 100 µM | –
49 | CC1=CCC[C@H]2[C@](C)(CC3=CC(=O)C4SCCSC4C3=O)[C@@H](C)CC[C@]12C (stereo partly specified) | 39.6 µM | –
50 | COC(=O)C1=C(C(=O)OC)C2(C)CCC(=O)C1O2 (stereo unspecified) | > 10 µM | –

These compounds were tested on HCT-15 colon (assay: DTP human tumour cell line panel, 48 h).

Row | SMILES | TGI | GI50
51 | CC(O)(C(=O)N(O)c1ccc(Cl)cc1)c1ccc(Cl)cc1 (stereo unspecified) | 65.7 µM | –
52 | CCOP(=O)(OCC)c1cc(-c2ccccc2)ccc1N | > 100 µM | –
53 | CC1(C)[C@@H]2C[C@H]1c1cnc(-c3ccccn3)cc1[C@H]2C(O)[C@@H]1c2cc(-c3ccccn3)ncc2[C@H]2C[C@@H]1C2(C)C (stereo partly specified) | 25.2 µM | –
54 | CC1(C)OC(CCO)CN1C(=O)OCc1ccccc1 (stereo unspecified) | > 100 µM | –
55 | COc1cc2c(cc1OCCCOc1cc3c(cc1OC)C(=O)N1CCC[C@H]1CN3)N=C[C@@H]1CCCN1C2=O | > 24.5 µM | –
56 | CCOC(=O)C1=C(C)NC(=O)N([N+](=O)[O-])C1c1ccccc1C(F)(F)F (stereo unspecified) | > 100 µM | –
57 | O=c1c(Cc2ccccc2)c(-c2ccccc2)[nH]n1C1=NCCN1 | > 100 µM | –
58 | Brc1ccc2c(c1)-c1nc3c(cc1CC2)CCc1ccc(Br)cc1-3 | > 100 µM | –
59 | OC(c1ccco1)C(F)(F)c1nc2ccccc2o1 (stereo unspecified) | > 100 µM | –
60 | Cc1cn(C2CC(OC(c3ccccc3)(c3ccccc3)c3ccccc3)C(COC(c3ccccc3)(c3ccccc3)c3ccccc3)O2)c(=O)[nH]c1=O (stereo unspecified) | > 100 µM | –
61 | CCOC(=O)C(NC(=O)c1ccc(N=NN(C)C)cc1)C(C)C (stereo unspecified) | > 100 µM | –
62 | COc1cc(CCCOC2OC(COC3OCC(O)C(O)C3O)C(O)C(O)C2O)cc2cc(-c3ccc4c(c3)OCO4)oc12 (stereo unspecified) | > 175 µM | –
63 | CCOC(=O)c1ccc(C(=O)/C(C(=O)OC(C)(C)C)=C2\CCCN2C)n1C | > 100 µM | –
64 | O=C1c2c(c3c4ccc(Br)cc4oc3c3[nH]c4ccccc4c23)C(=O)N1O | > 100 µM | 2.13 µM
65 | O=CN(O)CC(=O)O | > 100 µM | –
66 | C(=N/Nc1ccc(-c2nc3ccccc3[nH]2)cc1)/c1c(-c2ccccc2)[nH]c2ccccc12 | > 100 µM | –
67 | CCOC(=O)c1c(NC(=S)Nc2ccc(C)cc2)sc2c1CCN(C)C2 | > 100 µM | –
68 | c1ccc([P+](Cc2csnn2)(c2ccccc2)c2ccccc2)cc1 | > 100 µM | –
69 | c1ccc(-c2ccc(N=NN3CCCC3)cc2)cc1 | > 100 µM | –
70 | NNC(=O)c1cccc2c1Oc1ccccc1S2 | > 100 µM | –
71 | NC(=S)N=Nc1c(O)cc(Nc2ccc(Cl)cc2Cl)c2ccccc12 | > 100 µM | –
72 | CCC1(CC)C(=O)NC(=S)N=C1N | > 100 µM | –
73 | CCCC[C@@H]1CCN2C[C@@H](O)[C@@H](O)[C@H]2[C@@H]1O | > 100 µM | –
